Measurements: article PMC5749554 (Drug Design, Development and Therapy, 2017)

How the values were obtained:
Assay type in all cases: biochemical
Conditions in all cases: liver microsomes
CYP2D6 (HLM) [1] = molecular target: T1, CYP2D6 (HLM) (Homo sapiens, UniProt P10635); assay: cocktail probe-substrate assay, HPLC
CYP2C9 (HLM) [2] = molecular target: T2, CYP2C9 (HLM) (Homo sapiens, UniProt P11712); assay: cocktail probe-substrate assay, HPLC
CYP3A4 (HLM) = CYP3A4 (HLM) (Homo sapiens, UniProt P08684); assay: cocktail probe-substrate assay, HPLC
CYP3A4 (HLM), sequence (P08684 2-503): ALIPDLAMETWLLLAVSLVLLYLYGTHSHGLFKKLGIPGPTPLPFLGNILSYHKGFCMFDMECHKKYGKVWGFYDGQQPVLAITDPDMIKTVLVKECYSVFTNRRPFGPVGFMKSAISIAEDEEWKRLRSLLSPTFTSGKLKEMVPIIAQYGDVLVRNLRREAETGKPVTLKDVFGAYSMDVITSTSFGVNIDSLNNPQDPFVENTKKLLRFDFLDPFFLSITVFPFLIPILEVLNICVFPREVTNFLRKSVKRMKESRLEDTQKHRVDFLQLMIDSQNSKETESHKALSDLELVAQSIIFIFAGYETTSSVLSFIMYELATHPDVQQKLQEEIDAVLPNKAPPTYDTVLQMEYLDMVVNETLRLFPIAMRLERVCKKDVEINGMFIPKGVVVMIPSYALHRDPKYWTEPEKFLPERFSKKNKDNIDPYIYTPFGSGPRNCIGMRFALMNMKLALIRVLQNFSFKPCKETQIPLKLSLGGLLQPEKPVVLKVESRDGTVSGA

CYP2D6 (HLM) [3] = molecular target: T1, CYP2D6 (HLM); assay: HPLC-MS/MS of alpha-hydroxymetoprolol
CYP1A2 (HLM) = molecular target: T3, CYP1A2 (HLM) (Homo sapiens, UniProt P05177); assay: cocktail probe-substrate assay, HPLC
T3 sequence (P05177 2-516): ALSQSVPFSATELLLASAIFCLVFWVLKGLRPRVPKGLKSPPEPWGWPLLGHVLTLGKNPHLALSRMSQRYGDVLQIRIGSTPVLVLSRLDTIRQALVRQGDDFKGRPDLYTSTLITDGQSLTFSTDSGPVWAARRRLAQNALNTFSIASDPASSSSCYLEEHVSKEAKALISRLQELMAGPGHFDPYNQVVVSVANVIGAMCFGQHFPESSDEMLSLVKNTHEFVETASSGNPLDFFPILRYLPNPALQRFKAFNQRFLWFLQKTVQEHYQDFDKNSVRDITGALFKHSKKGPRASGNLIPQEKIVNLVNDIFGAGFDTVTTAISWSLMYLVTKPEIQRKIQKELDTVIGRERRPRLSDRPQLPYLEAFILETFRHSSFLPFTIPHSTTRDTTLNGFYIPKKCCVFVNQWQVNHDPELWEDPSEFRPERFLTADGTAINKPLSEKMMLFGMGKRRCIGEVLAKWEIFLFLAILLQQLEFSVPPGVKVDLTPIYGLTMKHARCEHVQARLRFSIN

CYP2C9 (HLM) [4] = molecular target: T2, CYP2C9 (HLM); assay: HPLC-UV of 4-hydroxytolbutamide
CYP2E1 (HLM) = CYP2E1 (HLM) (Homo sapiens, UniProt P05181); assay: cocktail probe-substrate assay, HPLC
CYP2E1 (HLM), sequence (P05181 whole entry): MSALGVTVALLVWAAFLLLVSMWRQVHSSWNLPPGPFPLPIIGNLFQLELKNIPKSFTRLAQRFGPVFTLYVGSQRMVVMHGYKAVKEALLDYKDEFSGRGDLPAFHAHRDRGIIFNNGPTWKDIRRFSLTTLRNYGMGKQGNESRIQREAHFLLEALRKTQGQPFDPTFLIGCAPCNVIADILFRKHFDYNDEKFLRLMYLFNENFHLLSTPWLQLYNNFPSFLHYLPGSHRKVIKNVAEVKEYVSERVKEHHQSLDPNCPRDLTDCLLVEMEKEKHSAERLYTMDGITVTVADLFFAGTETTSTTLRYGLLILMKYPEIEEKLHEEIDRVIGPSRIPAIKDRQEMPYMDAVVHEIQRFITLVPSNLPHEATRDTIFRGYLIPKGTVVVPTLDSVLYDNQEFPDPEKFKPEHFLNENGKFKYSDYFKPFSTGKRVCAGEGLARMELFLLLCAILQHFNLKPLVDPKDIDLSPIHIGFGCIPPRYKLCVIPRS

T1 sequence (P10635 whole entry): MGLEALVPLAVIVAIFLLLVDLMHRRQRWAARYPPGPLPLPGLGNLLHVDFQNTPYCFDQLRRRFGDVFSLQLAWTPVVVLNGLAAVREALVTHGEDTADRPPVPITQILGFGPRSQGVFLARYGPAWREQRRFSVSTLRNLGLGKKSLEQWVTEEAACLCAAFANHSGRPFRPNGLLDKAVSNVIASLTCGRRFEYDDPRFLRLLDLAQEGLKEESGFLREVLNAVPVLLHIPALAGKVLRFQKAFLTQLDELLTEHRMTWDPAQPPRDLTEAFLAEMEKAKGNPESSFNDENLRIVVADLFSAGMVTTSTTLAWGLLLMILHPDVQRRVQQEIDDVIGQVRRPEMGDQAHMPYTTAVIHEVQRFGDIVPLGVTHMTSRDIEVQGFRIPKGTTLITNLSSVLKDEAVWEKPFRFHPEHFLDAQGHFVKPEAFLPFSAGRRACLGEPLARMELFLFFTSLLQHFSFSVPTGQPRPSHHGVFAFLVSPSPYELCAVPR
T2 sequence (P11712 whole entry): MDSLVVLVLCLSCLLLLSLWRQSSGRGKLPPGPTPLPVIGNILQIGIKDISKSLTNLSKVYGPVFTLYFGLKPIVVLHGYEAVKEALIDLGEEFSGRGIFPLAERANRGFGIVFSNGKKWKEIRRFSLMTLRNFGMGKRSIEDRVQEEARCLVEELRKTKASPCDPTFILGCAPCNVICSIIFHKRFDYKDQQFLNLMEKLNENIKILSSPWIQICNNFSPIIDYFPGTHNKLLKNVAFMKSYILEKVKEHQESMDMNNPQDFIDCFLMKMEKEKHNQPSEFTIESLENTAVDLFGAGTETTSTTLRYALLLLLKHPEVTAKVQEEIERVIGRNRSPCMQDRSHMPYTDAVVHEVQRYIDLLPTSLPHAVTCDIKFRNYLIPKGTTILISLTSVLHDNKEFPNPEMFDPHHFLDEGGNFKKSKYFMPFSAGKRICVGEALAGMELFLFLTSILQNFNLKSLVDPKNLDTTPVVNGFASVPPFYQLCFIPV

IC50 (CYP2D6 (HLM) [1]): 11.9 µM
IC50 (CYP2C9 (HLM) [2]): 8.18 µM
IC50 (CYP3A4 (HLM)): 81.5 µM
Ki (CYP2D6 (HLM) [3]): 25.4 µM
IC50 (CYP1A2 (HLM)): > 100 µM
Ki (CYP2C9 (HLM) [4]): 5.64 µM
IC50 (CYP2E1 (HLM)): 66.3 µM
SMILES: COc1cc2c(cc1OC)-c1cc3ccc4c(c3c[n+]1CC2)OCO4 [Epiberberine]
